From ChEMBL document CHEMBL5678818, “Discovery of potent SOS1 inhibitors that block RAS activation via disruption of the RAS-SOS1 interaction” (Proc Natl Acad Sci U S A, 2019)

Assays:
[1] = target: Cyclin-dependent kinase 2 (Homo sapiens) (UniProt P24941); test: Inhibition of CDK2 (unknown origin) assessed as residual activity at 100 nM by KINOMEscan analysis relative to control
[2] = test system: Epidermal growth factor receptor (Homo sapiens), P00533 [L858R,T790M]; test: Inhibition of EGFR L858R/T790M mutant (unknown origin) assessed as residual activity at 100 nM by KINOMEscan analysis relative to control
[3] = target: Tyrosine-protein kinase HCK (Homo sapiens) (UniProt P08631); test: Inhibition of HCK (unknown origin) assessed as residual activity at 100 nM by KINOMEscan analysis relative to control
Chain of Tyrosine-protein kinase HCK (Homo sapiens) (P08631 2-526 limits assumed): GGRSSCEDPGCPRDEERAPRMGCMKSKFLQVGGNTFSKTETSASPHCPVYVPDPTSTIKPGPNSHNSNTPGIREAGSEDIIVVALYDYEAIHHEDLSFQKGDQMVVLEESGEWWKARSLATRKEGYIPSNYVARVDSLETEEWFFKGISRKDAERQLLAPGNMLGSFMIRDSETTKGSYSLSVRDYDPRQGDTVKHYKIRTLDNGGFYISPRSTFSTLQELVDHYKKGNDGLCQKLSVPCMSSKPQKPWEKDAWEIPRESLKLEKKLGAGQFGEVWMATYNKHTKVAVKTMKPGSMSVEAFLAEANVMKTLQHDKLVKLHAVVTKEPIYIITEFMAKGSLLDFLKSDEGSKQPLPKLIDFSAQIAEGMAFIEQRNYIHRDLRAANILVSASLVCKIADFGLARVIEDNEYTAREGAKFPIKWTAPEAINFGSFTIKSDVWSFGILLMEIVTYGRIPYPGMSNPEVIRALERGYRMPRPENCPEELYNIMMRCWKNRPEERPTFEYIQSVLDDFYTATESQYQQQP

[4] = target: Mitogen-activated protein kinase kinase kinase kinase 1 (Homo sapiens) (UniProt Q92918); test: Inhibition of HPK1 (unknown origin) assessed as residual activity at 100 nM by KINOMEscan analysis relative to control
Chain of Mitogen-activated protein kinase kinase kinase kinase 1 (Homo sapiens) (Q92918 whole entry, looked up): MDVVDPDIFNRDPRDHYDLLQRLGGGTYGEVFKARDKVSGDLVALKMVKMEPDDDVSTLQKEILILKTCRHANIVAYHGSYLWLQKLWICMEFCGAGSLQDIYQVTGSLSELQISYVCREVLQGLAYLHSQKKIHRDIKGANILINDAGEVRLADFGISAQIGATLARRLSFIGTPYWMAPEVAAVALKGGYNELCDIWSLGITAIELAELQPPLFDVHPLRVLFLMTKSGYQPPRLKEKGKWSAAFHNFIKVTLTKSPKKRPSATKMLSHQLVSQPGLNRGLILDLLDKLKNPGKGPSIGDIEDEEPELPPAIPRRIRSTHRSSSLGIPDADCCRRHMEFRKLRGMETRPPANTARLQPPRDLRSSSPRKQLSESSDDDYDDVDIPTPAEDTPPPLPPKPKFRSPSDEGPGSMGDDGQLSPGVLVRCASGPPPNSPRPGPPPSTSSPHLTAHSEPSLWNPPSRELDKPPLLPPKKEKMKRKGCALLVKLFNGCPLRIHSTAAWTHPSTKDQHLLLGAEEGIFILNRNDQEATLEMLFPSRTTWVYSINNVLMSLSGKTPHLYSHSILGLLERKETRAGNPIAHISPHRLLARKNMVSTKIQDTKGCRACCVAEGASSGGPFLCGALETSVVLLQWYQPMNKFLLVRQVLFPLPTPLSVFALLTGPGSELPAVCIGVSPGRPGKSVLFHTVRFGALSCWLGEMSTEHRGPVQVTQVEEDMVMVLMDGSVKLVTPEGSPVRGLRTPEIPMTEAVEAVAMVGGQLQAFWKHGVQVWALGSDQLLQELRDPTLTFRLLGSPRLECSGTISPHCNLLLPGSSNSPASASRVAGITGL

[5] = target: Serine/threonine-protein kinase MARK2 (Homo sapiens) (UniProt Q7KZI7); test: Inhibition of MARK2 (unknown origin) assessed as residual activity at 100 nM by KINOMEscan analysis relative to control
Chain of Serine/threonine-protein kinase MARK2 (Homo sapiens) (Q7KZI7 whole entry): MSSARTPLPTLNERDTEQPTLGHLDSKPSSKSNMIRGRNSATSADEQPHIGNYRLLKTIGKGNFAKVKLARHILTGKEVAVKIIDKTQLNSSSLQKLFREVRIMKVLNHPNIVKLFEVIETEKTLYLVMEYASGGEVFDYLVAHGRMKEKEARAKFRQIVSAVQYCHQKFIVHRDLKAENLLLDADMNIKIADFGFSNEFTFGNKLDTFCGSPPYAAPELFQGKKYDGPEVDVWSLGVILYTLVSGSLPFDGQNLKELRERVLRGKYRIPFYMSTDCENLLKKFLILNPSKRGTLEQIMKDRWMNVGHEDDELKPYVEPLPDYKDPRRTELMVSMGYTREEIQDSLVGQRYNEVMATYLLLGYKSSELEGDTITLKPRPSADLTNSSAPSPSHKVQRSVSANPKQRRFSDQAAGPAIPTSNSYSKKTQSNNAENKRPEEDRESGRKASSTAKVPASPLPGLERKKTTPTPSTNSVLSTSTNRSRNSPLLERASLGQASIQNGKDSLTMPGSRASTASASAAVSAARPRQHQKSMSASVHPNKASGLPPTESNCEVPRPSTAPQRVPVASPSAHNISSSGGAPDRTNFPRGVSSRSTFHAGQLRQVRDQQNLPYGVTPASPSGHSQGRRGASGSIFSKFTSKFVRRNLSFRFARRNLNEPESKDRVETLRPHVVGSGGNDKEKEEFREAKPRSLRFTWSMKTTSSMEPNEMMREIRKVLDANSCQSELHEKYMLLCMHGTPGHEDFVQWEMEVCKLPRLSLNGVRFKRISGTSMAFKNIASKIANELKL

[6] = target: T1, Dual specificity mitogen-activated protein kinase kinase 7 (Homo sapiens) (UniProt O14733); test: Inhibition of MKK7 (unknown origin) assessed as residual activity at 100 nM by KINOMEscan analysis relative to control
T1 sequence (whole entry): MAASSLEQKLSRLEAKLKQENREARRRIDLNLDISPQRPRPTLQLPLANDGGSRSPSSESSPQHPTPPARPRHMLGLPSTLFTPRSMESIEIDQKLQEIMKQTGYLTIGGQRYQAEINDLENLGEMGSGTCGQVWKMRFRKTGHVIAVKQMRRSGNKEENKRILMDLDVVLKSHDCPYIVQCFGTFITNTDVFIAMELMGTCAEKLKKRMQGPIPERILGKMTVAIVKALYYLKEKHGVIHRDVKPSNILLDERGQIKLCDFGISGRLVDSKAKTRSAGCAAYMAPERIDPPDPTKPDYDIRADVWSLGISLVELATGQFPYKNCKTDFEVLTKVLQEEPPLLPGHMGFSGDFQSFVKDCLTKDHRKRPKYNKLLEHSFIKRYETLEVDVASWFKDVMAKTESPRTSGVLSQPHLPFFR

[7] = target: Mitogen-activated protein kinase kinase kinase 9 (Homo sapiens) (UniProt P80192); test: Inhibition of MLK1 (unknown origin) assessed as residual activity at 100 nM by KINOMEscan analysis relative to control
[8] = target: Serine/threonine-protein kinase mTOR (Homo sapiens) (UniProt P42345); test: Inhibition of MTOR (unknown origin) assessed as residual activity at 100 nM by KINOMEscan analysis relative to control
[9] = test system: Phosphatidylinositol 4,5-bisphosphate 3-kinase catalytic subunit alpha isoform (Homo sapiens), P42336 [C420R]; test: Inhibition of PIK3CA C420R mutant (unknown origin) assessed as residual activity at 100 nM by KINOMEscan analysis relative to control
Chain of Phosphatidylinositol 4,5-bisphosphate 3-kinase catalytic subunit alpha isoform (Homo sapiens), P42336 [C420R] (P42336 whole entry C420R, the tested form may be a part, canonical isoform): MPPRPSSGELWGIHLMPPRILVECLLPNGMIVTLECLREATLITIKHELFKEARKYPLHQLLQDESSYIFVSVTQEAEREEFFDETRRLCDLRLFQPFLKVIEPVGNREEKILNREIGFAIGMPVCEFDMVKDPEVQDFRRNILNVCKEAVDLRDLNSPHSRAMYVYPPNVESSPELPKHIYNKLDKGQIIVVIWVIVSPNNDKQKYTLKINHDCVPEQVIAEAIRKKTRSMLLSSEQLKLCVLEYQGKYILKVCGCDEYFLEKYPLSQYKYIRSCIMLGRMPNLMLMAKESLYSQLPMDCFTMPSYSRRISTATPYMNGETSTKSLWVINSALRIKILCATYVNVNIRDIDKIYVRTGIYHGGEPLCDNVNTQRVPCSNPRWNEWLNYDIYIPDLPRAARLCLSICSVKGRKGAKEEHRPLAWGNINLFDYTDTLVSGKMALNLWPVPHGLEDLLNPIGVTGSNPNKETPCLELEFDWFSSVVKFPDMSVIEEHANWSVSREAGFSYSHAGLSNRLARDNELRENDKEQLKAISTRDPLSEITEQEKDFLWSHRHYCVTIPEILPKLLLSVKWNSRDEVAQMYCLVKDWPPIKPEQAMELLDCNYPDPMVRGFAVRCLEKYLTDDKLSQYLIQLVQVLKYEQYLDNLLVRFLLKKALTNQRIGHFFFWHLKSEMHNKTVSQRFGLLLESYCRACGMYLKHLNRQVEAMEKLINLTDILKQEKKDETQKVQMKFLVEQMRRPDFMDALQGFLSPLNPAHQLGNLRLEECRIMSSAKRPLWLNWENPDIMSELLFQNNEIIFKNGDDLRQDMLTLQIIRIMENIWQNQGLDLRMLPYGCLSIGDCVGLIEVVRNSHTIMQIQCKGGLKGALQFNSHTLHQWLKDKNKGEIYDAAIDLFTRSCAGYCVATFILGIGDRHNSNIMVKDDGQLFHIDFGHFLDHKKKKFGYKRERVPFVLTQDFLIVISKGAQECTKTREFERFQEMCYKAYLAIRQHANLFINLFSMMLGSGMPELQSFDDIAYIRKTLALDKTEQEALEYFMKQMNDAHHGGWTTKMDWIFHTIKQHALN

[10] = target: Ribosomal protein S6 kinase alpha-3 (Homo sapiens) (UniProt P51812); test: Inhibition of N-terminal RSK2 kinetic domain 1 (unknown origin) assessed as residual activity at 100 nM by KINOMEscan analysis relative to control
Chain of Ribosomal protein S6 kinase alpha-3 (Homo sapiens) (P51812 whole entry, the tested form may be a part): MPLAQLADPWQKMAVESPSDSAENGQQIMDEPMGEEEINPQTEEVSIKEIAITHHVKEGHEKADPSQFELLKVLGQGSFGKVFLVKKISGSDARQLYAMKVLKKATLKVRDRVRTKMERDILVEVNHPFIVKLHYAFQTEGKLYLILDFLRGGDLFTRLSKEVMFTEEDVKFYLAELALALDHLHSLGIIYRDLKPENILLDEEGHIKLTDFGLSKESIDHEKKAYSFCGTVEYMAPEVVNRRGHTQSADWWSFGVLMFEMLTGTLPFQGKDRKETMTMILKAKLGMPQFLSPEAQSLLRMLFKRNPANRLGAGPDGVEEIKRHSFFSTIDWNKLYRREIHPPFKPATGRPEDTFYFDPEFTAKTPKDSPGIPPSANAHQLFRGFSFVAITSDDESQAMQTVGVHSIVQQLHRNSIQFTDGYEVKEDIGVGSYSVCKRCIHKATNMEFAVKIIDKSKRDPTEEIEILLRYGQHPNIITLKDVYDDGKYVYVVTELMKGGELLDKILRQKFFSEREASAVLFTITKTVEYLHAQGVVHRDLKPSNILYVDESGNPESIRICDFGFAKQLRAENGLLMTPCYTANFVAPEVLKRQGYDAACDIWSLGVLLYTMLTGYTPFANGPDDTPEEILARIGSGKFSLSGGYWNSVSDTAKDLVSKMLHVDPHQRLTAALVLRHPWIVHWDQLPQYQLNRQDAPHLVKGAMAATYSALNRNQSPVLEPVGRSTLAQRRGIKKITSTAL

[11] = target: T2, Serine/threonine-protein kinase Sgk3 (Homo sapiens) (UniProt Q96BR1); test: Inhibition of SGK3 (unknown origin) assessed as residual activity at 100 nM by KINOMEscan analysis relative to control
T2 sequence (whole entry): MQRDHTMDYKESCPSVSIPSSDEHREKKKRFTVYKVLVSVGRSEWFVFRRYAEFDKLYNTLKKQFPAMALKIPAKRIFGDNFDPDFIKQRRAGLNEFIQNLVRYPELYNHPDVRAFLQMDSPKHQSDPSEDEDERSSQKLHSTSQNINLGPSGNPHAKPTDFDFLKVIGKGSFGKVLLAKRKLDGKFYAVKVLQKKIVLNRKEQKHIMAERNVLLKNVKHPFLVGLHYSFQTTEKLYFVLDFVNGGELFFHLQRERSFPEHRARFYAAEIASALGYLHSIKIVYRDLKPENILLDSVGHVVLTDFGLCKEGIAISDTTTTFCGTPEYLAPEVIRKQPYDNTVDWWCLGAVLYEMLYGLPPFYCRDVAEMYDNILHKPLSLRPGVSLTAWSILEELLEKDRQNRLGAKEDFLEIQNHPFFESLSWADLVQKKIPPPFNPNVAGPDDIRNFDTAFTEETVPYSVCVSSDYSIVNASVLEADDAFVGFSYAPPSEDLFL

[12] = target: Tyrosine-protein kinase Srms (Homo sapiens) (UniProt Q9H3Y6); test: Inhibition of SRMS (unknown origin) assessed as residual activity at 100 nM by KINOMEscan analysis relative to control
Chain of Tyrosine-protein kinase Srms (Homo sapiens) (Q9H3Y6 whole entry): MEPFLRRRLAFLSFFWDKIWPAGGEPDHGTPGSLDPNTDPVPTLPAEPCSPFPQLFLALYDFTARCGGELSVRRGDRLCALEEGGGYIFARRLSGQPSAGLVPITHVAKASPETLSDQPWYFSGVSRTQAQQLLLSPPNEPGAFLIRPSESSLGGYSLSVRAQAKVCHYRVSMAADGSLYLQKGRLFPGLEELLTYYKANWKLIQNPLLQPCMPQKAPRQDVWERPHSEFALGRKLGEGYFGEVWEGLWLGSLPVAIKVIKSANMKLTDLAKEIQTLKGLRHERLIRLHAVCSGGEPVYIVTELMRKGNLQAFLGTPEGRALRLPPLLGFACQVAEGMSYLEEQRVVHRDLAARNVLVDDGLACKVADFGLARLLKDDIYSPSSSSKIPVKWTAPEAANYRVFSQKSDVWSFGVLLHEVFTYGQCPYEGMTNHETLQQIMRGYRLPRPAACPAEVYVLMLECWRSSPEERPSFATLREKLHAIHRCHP

[13] = target: Serine/threonine-protein kinase 35 (Homo sapiens) (UniProt Q8TDR2); test: Inhibition of STK35 (unknown origin) assessed as residual activity at 100 nM by KINOMEscan analysis relative to control
Chain of Serine/threonine-protein kinase 35 (Homo sapiens) (Q8TDR2 whole entry): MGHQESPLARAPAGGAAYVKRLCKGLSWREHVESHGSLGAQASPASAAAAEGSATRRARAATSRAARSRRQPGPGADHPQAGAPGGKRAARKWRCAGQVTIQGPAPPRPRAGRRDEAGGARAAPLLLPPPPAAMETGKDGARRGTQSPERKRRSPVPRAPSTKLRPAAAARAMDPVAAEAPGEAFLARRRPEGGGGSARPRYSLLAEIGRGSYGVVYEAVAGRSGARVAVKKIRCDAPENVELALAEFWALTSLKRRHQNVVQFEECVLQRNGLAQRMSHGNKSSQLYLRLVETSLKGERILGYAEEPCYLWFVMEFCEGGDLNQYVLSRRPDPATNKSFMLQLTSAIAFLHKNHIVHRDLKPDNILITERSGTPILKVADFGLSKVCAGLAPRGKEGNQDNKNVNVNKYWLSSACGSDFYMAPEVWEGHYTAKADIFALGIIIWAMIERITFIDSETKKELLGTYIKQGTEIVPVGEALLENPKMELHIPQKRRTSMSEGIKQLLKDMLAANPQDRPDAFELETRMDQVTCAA

[14] = target: T3, Serine/threonine-protein kinase TNNI3K (Homo sapiens) (UniProt Q59H18); test: Inhibition of TNNI3K (unknown origin) assessed as residual activity at 100 nM by KINOMEscan analysis relative to control
T3 sequence (whole entry): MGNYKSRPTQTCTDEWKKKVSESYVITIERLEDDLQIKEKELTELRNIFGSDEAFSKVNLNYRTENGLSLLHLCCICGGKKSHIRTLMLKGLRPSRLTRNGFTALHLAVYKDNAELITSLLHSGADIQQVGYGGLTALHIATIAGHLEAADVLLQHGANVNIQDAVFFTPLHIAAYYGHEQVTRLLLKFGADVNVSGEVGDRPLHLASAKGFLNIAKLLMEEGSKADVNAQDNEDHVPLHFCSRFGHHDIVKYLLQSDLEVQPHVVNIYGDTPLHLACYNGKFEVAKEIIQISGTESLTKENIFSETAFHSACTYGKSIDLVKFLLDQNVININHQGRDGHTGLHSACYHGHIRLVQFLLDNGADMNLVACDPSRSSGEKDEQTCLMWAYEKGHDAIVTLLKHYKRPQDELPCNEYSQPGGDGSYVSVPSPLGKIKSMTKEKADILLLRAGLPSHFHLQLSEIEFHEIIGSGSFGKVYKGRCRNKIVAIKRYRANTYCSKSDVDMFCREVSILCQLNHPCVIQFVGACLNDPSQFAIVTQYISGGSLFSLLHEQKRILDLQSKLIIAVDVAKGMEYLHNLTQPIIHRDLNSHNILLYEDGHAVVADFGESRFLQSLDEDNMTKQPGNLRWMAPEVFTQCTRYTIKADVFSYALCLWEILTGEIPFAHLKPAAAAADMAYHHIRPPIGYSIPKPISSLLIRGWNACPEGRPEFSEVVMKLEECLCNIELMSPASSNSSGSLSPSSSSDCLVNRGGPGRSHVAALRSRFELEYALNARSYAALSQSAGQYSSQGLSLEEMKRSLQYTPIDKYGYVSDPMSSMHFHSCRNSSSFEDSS

Compound: COc1cc2ncnc(N[C@H](C)c3cccc4ccccc34)c2cc1OC
- Activity [1]: 100%
- Activity [2]: 85%
- Activity [3]: 88%
- Activity [4]: 81%
- Activity [5]: 82%
- Activity [6]: 77%
- Activity [7]: 100%
- Activity [8]: 82%
- Activity [9]: 90%
- Activity [10]: 70%
- Activity [11]: 100%
- Activity [12]: 79%
- Activity [13]: 98%
- Activity [14]: 85%
